According to paper PMC5405622 (Drug Metabolism Letters, 2016):
Values joined by “and” are separate entries in the source; they are usually repeats but may differ in a detail not shown here. Equal values may be shown once. Read-outs that look alike come from different tables or passages of the source.

Experiments:
Oct1/2 = experiment: Blood clearance in Oct1/2 double KO and wild-type mice with or without ABT; type: in vivo, mouse; conditions: for Reduction of blood clearance by ABT: ABT 100 mg/kg oral 2 h before GNE1 2 mg/kg IV
PAK1 = PAK1 (Homo sapiens, UniProt Q13153); experiment: PAK1 inhibition constant; type: biochemical; conditions: read-out: PAK1 Ki
Kinetic solubility = type: physicochemical
[1] = Intrinsic clearance in human liver microsomes; type: in vitro ADME; conditions: human liver microsomes 0.5 mg/mL, 0.5 μM, scaled
[2] = Intrinsic clearance in human hepatocytes; type: in vitro ADME; conditions: human hepatocytes 0.5 million cells/mL, 0.5 μM, scaled
[3] = Intrinsic clearance in rat liver microsomes; type: in vitro ADME; conditions: rat liver microsomes 0.5 mg/mL, 0.5 μM, scaled
[4] = test system: cryo-preserved rat hepatocytes; conditions: cited from earlier work
[5] = not given; remark: listed apart in the source
Unbound fraction in rat = type: in vitro ADME
MDCK parent cells = experiment: MDCK permeability and efflux; type: in vitro ADME
[6] = Intrinsic clearance in rat hepatocytes; type: in vitro ADME; conditions: rat hepatocytes 0.5 million cells/mL, 0.5 μM, scaled
[7] = Single-pass isolated perfused rat liver; type: in vitro ADME
[8] = Intravenous bolus and infusion pharmacokinetics in Sprague-Dawley rats; type: in vivo, rat; conditions: for Plasma CL: n = 3
[9] = Unbound fraction in liver perfusate and liver homogenate; type: in vitro ADME, rat
Log D at pH 7.4 = type: physicochemical; conditions: octanol/buffer
[10] = Stability of GNE4 in rat intestinal S9 and feces; type: in vitro ADME; conditions: rat intestinal S9 and feces (data not shown)
[11] = read-out: Plasma concentration at Cmax; cited from earlier work
mouse hepatocytes = experiment: Metabolism of GNE1 in mouse hepatocytes with or without ABT; type: in vitro ADME; conditions: ABT 500 μM, GNE1 5 μM

PAK1, sequence (Q13153 whole entry): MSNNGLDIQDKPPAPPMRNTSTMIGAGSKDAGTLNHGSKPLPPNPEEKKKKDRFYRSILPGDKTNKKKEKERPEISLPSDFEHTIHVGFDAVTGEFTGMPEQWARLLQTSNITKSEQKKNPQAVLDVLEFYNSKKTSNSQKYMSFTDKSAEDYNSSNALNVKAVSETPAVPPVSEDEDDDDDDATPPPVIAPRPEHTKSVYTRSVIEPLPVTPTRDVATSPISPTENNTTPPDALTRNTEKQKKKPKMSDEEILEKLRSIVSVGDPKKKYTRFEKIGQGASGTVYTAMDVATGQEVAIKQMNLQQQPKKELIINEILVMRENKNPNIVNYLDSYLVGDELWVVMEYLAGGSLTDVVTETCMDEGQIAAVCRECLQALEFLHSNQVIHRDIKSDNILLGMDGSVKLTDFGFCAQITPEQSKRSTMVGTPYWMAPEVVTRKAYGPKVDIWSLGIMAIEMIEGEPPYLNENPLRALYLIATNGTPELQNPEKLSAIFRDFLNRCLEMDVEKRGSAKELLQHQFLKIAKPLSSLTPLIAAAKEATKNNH

N[C@H]1CC[C@H](CNc2ncc(Cl)c(Nc3cc(C4CC4)[nH]n3)n2)CC1 [GNE1, N^2-(((1r,4r)-4-aminocyclohexyl)methyl)-5-chloro-N^4-(5-cyclopropyl-1H-pyrazol-3-yl)pyrimidine-2,4-diamine]
Reduction of blood clearance by ABT (Oct1/2; Oct1/2 double KO mice): 28.2% | Average change of blood clearance between wild-type and transporter KO mice (Oct1/2; regardless of ABT treatment): 56% | Average overall decrease of blood clearance by ABT (Oct1/2; wild-type and double KO mice averaged): 24% | Reduction of blood clearance by ABT (Oct1/2; wild-type mice): 20.5% | Ki (PAK1): 26 nM | Kinetic solubility (Kinetic solubility): 157 µM | HLM CLint [1]: 4.5 mL/min/kg | Total amount of GNE1 recovered in urine over 24 hours (intact rats (no bile collection), % of dose): 16% and 15.6% and 15% | Dose recovery of unchanged GNE1 in urine (intact rats, 0-8 h (one value across 0-4h and 4-8h)): 8.5 ± 2.3 % of Total Dosed | Dose recovery of unchanged GNE1 in urine (intact rats, 8-24h): 7.1 ± 2.0 % of Total Dosed | Dose recovery of unchanged GNE1 in urine (intact rats, 24-48h): <1 % of Total Dosed | Dose recovery of unchanged GNE1 in feces (intact rats, 24-48h (72 h experiment)): 8.4 ± 2.9 % of Total Dosed | Total Recovery (24–72 h) of unchanged GNE1 (intact rats, 24–72 h): 8.4 % of Total Dosed | Dose recovery of unchanged GNE1 in feces (intact rats, 48-72h): <1 % of Total Dosed | Dose recovery of unchanged GNE1 in urine (intact rats, 48-72h): <1 % of Total Dosed | Recovery of GNE1 in feces during 0–24 hours (intact rats, 72 h collection experiment): up to 91 % of Total Dosed | Total Recovery of unchanged GNE1 (intact rats, up to 24 hours): 93 % of Total Dosed | N-acetylation as share of total dose (rat, IV): about 10% | HH CLint [2]: 2.4 mL/min/kg | RLM CLint [3]: 6.1 mL/min/kg | Uptake rate (CLint, influx) [4]: 11.1 mL/min/g of liver | Fecal recovery of unchanged GNE1 over 24 hours ([5]; BDC rats): 24% | Dose recovery of unchanged GNE1 in bile ([5]; BDC rats, 0-4h): 7.8 ± 1.2 % of Total Dosed | Dose recovery of unchanged GNE1 in urine ([5]; BDC rats, 0-4h): BQL | Dose recovery of unchanged GNE1 in feces ([5]; BDC rats, 0-8h): 5.8 ± 4.2 % of Total Dosed | Dose recovery of unchanged GNE1 in bile ([5]; BDC rats, 4-8h): 2.5 ± 0.9 % of Total Dosed | Dose recovery of unchanged GNE1 in urine ([5]; BDC rats, 4-8h): 30 % of Total Dosed and 30 ± 1.1 % of Total Dosed | Dose recovery of unchanged GNE1 in bile ([5]; BDC rats, 8-24h): 3.9 ± 1.8 % of Total Dosed | Dose recovery of unchanged GNE1 in feces ([5]; BDC rats, 8-24h): 18 % of Total Dosed and 18 ± 4.7 % of Total Dosed | Dose recovery of unchanged GNE1 in urine ([5]; BDC rats, 8-24h): 2.8 ± 1.0 % of Total Dosed | Dose recovery of unchanged GNE1 in bile ([5]; BDC rats, 24-48h): <1 % of Total Dosed | Dose recovery of unchanged GNE1 in feces ([5]; BDC rats, 24-48h): 2.2 ± 1.4 % of Total Dosed | Dose recovery of unchanged GNE1 in urine ([5]; BDC rats, 24-48h): <1 % of Total Dosed | Total Recovery (24–72 h) of unchanged GNE1 ([5]; BDC rats, 24–72 h): 2.2 % of Total Dosed | Dose recovery of unchanged GNE1 in bile ([5]; BDC rats, 48-72h): 0 % of Total Dosed | Dose recovery of unchanged GNE1 in feces ([5]; BDC rats, 48-72h): <1 % of Total Dosed | Dose recovery of unchanged GNE1 in urine ([5]; BDC rats, 48-72h): <1 % of Total Dosed | Overall biliary excretion of unchanged GNE1 ([5]; BDC rats, 24 h): ~14% | Recovery of GNE1 in feces during 0–24 hours ([5]; BDC rats, 72 h collection experiment): 31 % of Total Dosed | Percentage of GNE1 detected in urine ([5]; BDC rats, compared with intact rats): 30% | Total Recovery of unchanged GNE1 ([5]; BDC rats, up to 24 hours): 71 % of Total Dosed | Biliary clearance as share of total clearance ([5]; cannulated rats, IV): approximately 14% | Renal clearance as share of total clearance ([5]; rats, IV): ~16% | fu rat (Unbound fraction in rat): 0.16 | MDCK efflux ratio (MDCK parent cells): 43 | MDCK A→B Papp (MDCK parent cells; apical to basolateral): 0.1 ×10⁻⁶ cm/s | RH CLint [6]: 34 mL/min/kg | GNE1 hepatic ER ([7]; GNE1 Cin = 0.3 μM with Quinine (10 μM)): 0.36 | GNE1 hepatic ER ([7]; GNE1 Cin = 0.3 μM, flow 12 mL/min): 0.78 | GNE1 hepatic ER ([7]; GNE1 Cin = 8 μM): 0.41 | Perfusate Cout ([7]; end of perfusion, Cin = 0.3 μM): 0.07 µM | Total liver concentration of GNE1 ([7]; end of perfusion, Cin = 0.3 μM): 8 µM | Biliary clearance, fold lower than calculated perfusate clearance ([7]; isolated perfused rat liver, Cin 0.3 μM): about 26 fold | Biliary clearance ([7]; isolated perfused rat liver, GNE1 Cin = 0.3 μM): 0.7 mL/min/kg | Biliary clearance ([7]; isolated perfused rat liver, GNE1 Cin = 0.3 μM with Quinine (10 μM)): 0.046 mL/min/kg | Biliary clearance ([7]; isolated perfused rat liver, GNE1 Cin = 8 μM): 0.23 mL/min/kg | kpu,u (intracellular to extracellular ratio of unbound concentrations) ([7]; liver/perfusate, Cin = 0.3 μM): 3.8 | Biliary clearance as share of total perfusate clearance ([7]; multiple IPL experiments): less than 5% | Clearance relative to hepatic blood flow ([8]; dosed in rat): greater than hepatic blood flow | CLB (biliary clearance) ([8]; rat, IV bolus, 2 mg/kg): 21.5 ± 6.20 mL/min/kg | CLR (renal clearance) ([8]; rat, IV bolus, 2 mg/kg): 49.7 ± 3.84 mL/min/kg | Terminal half-life ([8]; rat, IV bolus, 2 mg/kg): 1.32 ± 0.43 h | Vss ([8]; rat, IV bolus, 2 mg/kg): 20.5 ± 1.92 L/kg | Plasma CL ([8]; rat, IV bolus, 2 mg/kg): 216 ± 53.0 mL/min/kg | In vivo rat CLp IV bolus ([8]; rat, IV bolus, plasma): 216 mL/min/kg | CLR (renal clearance) ([8]; rat, IV infusion 0.57 mg/kg/h): 20 ± 1.2 mL/min/kg and 20.2 ± 1.22 mL/min/kg | Terminal half-life ([8]; rat, IV infusion 0.57 mg/kg/h): 0.74 ± 0.10 h | Vss ([8]; rat, IV infusion 0.57 mg/kg/h): 4.2 ± 1.2 L/kg and 4.21 ± 1.16 L/kg | Plasma CL ([8]; rat, IV infusion 0.57 mg/kg/h to 90% of steady state): 121 ± 4.35 mL/min/kg | fu perfusate ([9]; isolated perfused liver perfusate (4% BSA, 20% bovine red blood cells)): 0.3 | fu in liver (corrected) ([9]; liver homogenate, corrected for dilution): 0.3/0.01 | Log DpH=7.4 (Log D at pH 7.4): 0.83

CC(=O)N[C@H]1CC[C@H](CNc2ncc(Cl)c(Nc3cc(C4CC4)[nH]n3)n2)CC1 [GNE4, N-((1r,4r)-4-(((5-chloro-4-((5-cyclopropyl-1H-pyrazol-3-yl)amino)pyrimidin-2-yl)amino)methyl)cyclohexyl)acetamide]
Stability to hydrolysis [10]: stable to hydrolysis | GNE4 amount relative to parent (fold less) in urine, feces and bile combined (intact rats, over 72 hours): approximately 13 fold | Amount of GNE4 (N-acetylated metabolite of GNE1) detected in feces (rat, after IV GNE1, up to 24 hours, % of total dose): 9.5% | GNE4 amount relative to parent (fold less) in urine, feces and bile combined ([5]; BDC rats, over 72 hours): ~8 fold

Nn1nnc2ccccc21 [ABT, 1-aminobenzotriazole]
Cmax [11]: 752 µM | Inhibition of oxidative and N-acetylation metabolism of GNE1 (mouse hepatocytes): completely inhibited
